≈ marks a conversion by molar mass, not a printed value.
Tests used:
[1] = system: Mycobacterium tuberculosis H37Rv; assay: Microplate Alamar Blue assay; format: cell-based; conditions: for MIC: Mycobacterium tuberculosis, H37RV, 120 h, read-out: M. tuberculosis MIC, H37Rv, microplate Alamar Blue assay; for times more active than Pyrazinamide (MIC) / times more active than streptomycin (MIC): M. tuberculosis H37Rv
[2] = system: B. substilis; assay: MIC by two-fold serial dilution; format: cell-based, Bacillus subtilis
[3] = system: mouse embryonic fibroblasts cell line (NIH 3T3); conditions: SI = IC50 (NIH 3T3) / MIC (M. tuberculosis H37Rv)
[4] = in vitro; conditions: mouse

SMILES	MIC [1] [µM]	times more active than Ciprofloxacin (MIC) [2]	Selectivity index [3]	IC50 [4] [mM]	times more active than Pyrazinamide (MIC) [1]	times more active than streptomycin (MIC) [1]
CN(C)c1ccc(C=NC2=NN(c3ccccc3)C(=O)C2=NNc2nc(-c3ccccc3)cs2)cc1 [TZP4k, 3-[{[4-(dimethylamino)phenyl]methylidene}amino]-1-phenyl-4-[2-(4-phenyl-1,3-thiazol-2-yl) hydrazin-1-ylidene]-4,5-dihydro-1H-pyrazol-5-one]	13 (≈ 6.4 µg/mL)	–	–	–	–	–
[H]/N=C(/N)N[C@H]1[C@H](O)[C@@H](O)[C@H](O[C@@H]2O[C@@H](C)[C@](O)(C=O)[C@H]2O[C@@H]2O[C@@H](CO)[C@H](O)[C@@H](O)[C@@H]2NC)[C@@H](N/C(N)=N\[H])[C@@H]1O [Streptomycin, reference compound]	11 (≈ 6.4 µg/mL)	–	–	–	–	–
COc1cc(C=NC2=NN(c3ccccc3)C(=O)C2=NNc2nc(-c3ccccc3)cs2)ccc1O [TZP4j, 3-[[(4-hydroxy-3-methoxyphenyl)methylidene]amino]-1-phenyl-4-[2-(4-phenyl-1,3-thiazol-2-yl) hydrazin-1-ylidene]-4,5-dihydro-1H-pyrazol-5-one]	25.2 (≈ 12.5 µg/mL)	2.99	–	–	–	–
O=C1C(=NNc2nc(-c3ccccc3)cs2)C(N=Cc2ccccc2O)=NN1c1ccccc1 [TZP4f, 3-[[(2-hydroxyphenyl)methylidene]amino]-1-phenyl-4-[2-(4-phenyl-1,3-thiazol-2-yl) hydrazin-1-ylidene]-4,5-dihydro-1H-pyrazol-5-one]	53.6 (≈ 25 µg/mL)	–	24.44	–	–	–
O=C1C(=NNc2nc(-c3ccccc3)cs2)C(N=Cc2cccc(Cl)c2)=NN1c1ccccc1 [TZP4c, 3-[[(3-chlorophenyl)methylidene]amino]-1-phenyl-4-[2-(4-phenyl-1,3-thiazol-2-yl) hydrazin-1-ylidene]-4,5-dihydro-1H-pyrazol-5-one]	–	–	82.85	> 1	–	–
O=C1C(=NNc2nc(-c3ccccc3)cs2)C(N=Cc2ccc(O)c(O)c2)=NN1c1ccccc1 [TZP4h, 3-[[(3,4-dihydroxyphenyl)methylidene]amino]-1-phenyl-4-[2-(4-phenyl-1,3-thiazol-2-yl) hydrazin-1-ylidene]-4,5-dihydro-1H-pyrazol-5-one]	6.48 (≈ 3.13 µg/mL)	1.45	199.07	–	3.9	1.69
O=C1C(=NNc2nc(-c3ccccc3)cs2)C(N=Cc2ccc(O)cc2O)=NN1c1ccccc1 [TZP4g, 3-[[(2,4-dihydroxyphenyl)methylidene]amino]-1-phenyl-4-[2-(4-phenyl-1,3-thiazol-2-yl) hydrazin-1-ylidene]-4,5-dihydro-1H-pyrazol-5-one]	12.9 (≈ 6.25 µg/mL)	1.45	168.88	> 1	1.69	3.91
O=C1C(=NNc2nc(-c3ccccc3)cs2)C(N=Cc2ccccc2Cl)=NN1c1ccccc1 [TZP4b, 3-[[(2-chlorophenyl)methylidene]amino]-1-phenyl-4-[2-(4-phenyl-1,3-thiazol-2-yl) hydrazin-1-ylidene]-4,5-dihydro-1H-pyrazol-5-one]	–	–	–	0.99	–	–
NC(=O)c1cnccn1 [Pyrazinamide, reference compound]	25.4 (≈ 3.12 µg/mL)	–	–	–	–	–
O=C1C(=NNc2nc(-c3ccccc3)cs2)C(N=Cc2ccc(Cl)cc2)=NN1c1ccccc1 [TZP4d, 3-[[(4-chlorophenyl)methylidene]amino]-1-phenyl-4-[2-(4-phenyl-1,3-thiazol-2-yl) hydrazin-1-ylidene]-4,5-dihydro-1H-pyrazol-5-one]	–	–	22.37	> 1	–	–
O=C1C(=NNc2nc(-c3ccccc3)cs2)C(N=Cc2ccc([N+](=O)[O-])cc2)=NN1c1ccccc1 [TZP4l, 3-[[(4-nitrophenyl)methylidene]amino]-1-phenyl-4-[2-(4-phenyl-1,3-thiazol-2-yl) hydrazin-1-ylidene]-4,5-dihydro-1H-pyrazol-5-one]	–	–	20.32	> 1	–	–
COc1cccc(C=NC2=NN(c3ccccc3)C(=O)C2=NNc2nc(-c3ccccc3)cs2)c1 [TZP4i, 3-[[(3-methoxyphenyl)methylidene]amino]-1-phenyl-4-[2-(4-phenyl-1,3-thiazol-2-yl) hydrazin-1-ylidene]-4,5-dihydro-1H-pyrazol-5-one]	26 (≈ 12.5 µg/mL)	–	–	–	–	–

Reference: PMC3697191 (Journal of Pharmacy & Bioallied Sciences, 2013)
